In patent US7612071B2, “Compositions and methods employing aminopterin” (Syntrix Biosystems, Inc., priority 2004, dated 2009):
Where two headings read alike, the source gives them in different places.

How the values were obtained:
[1] = test system: standard and high-risk ALL; conditions: for Toxicity Component: Antifolate dose causing 5.8% of the population to have the toxicity: Elevations in liver enzymes >5 times normal (severe hepatotoxicity)
[2] = MTX 15-25 mg/m^2 PO, n=38, prior art; cited from earlier work
[3] = mice, 4 weekly ip doses (aminopterin 0.03 mg/kg, methotrexate 0.3 mg/kg); days 1 and 22 after last dose
[4] = MTX 15-25 mg/m^2 PO, n=22, prior art; cited from earlier work
[5] = MTX 15-25 mg/m^2, pediatric patients, n=22, prior art; cited from earlier work
[6] = oral doses greater than about 7.5 mg/m^2; cited from earlier work
[7] = AMT 2 mg/m^2 PO x 2 (n=75), MTX 25 mg/m^2 PO x 4 (n=41)
[8] = AMT 2 mg/m^2 PO x 2 (n=81), MTX 25 mg/m^2 PO x 4 (n=42)
[9] = AMT 2 mg/m^2 PO x 2 (n=104), MTX 25 mg/m^2 PO x 4 (n=63)

CN(Cc1cnc2nc(N)nc(N)c2n1)c1ccc(C(=O)N[C@@H](CCC(=O)O)C(=O)O)cc1 [MTX, methotrexate, reference compound]
Event-free survival (EFS) at 24-months, Kaplan Meier ([1]; 25 high risk patients receiving aminopterin, standard risk patients receiving methotrexate): 86%
Coefficient of variation of toxicity, absolute neutrophil count in consolidation [1, 7]: 85%
Mean absolute neutrophil count in consolidation [1, 7]: 1919 cells/μL
Coefficient of variation of toxicity, platelet counts in consolidation [1, 8]: 47%
Mean platelet counts in consolidation [1, 8]: 312 cells × 10^3/μL
Coefficient of variation of toxicity, level of liver enzymes above normal [1, 9]: 36%
Mean level of liver enzymes above normal [1, 9]: 177 IU/L ALT
Coefficient of variation of toxicity, level of liver enzymes above normal ([1]; AMT 2 mg/m^2 PO x 2 (n=104), MTX 25 mg/m^2 PO x 4 (n=63), listed as methotrexate): 36%
Toxicity Component: Antifolate dose with same toxicity as MTX at 100 mg/m^2/wk ([1]; Any elevation of liver enzymes): 100 mg/m^2/wk
Toxicity Component: Antifolate dose causing 5.8% of the population to have the toxicity [1]: <100 mg/m^2/wk
Toxicity Component: Antifolate dose causing 5.8% of the population to have the toxicity ([1]; listed as methotrexate): less than 100 mg/m^2/wk
Toxicity Component: Antifolate dose with same toxicity as MTX at 100 mg/m^2/wk ([1]; Hospital admissions): 100 mg/m^2/wk
Toxicity Component: Antifolate dose with same toxicity as MTX at 100 mg/m^2/wk ([1]; Mucositis): 100 mg/m^2/wk
Toxicity Component: Antifolate dose with same toxicity as MTX at 100 mg/m^2/wk ([1]; Myelosuppression): 100 mg/m^2/wk
Toxicity Component: Antifolate dose with same toxicity as MTX at 100 mg/m^2/wk ([1]; Neutropenia): 100 mg/m^2/wk
Toxicity Component: Antifolate dose with same toxicity as MTX at 100 mg/m^2/wk ([1]; Thrombocytopenia): 100 mg/m^2/wk
Toxicity Component: Antifolate dose with same toxicity as MTX at 100 mg/m^2/wk ([1]; Treatment interruptions): 100 mg/m^2/wk
Toxicity Component: Antifolate dose with same toxicity as MTX at 100 mg/m^2/wk ([1]; eAMT and eMTX (marrow exposure)): 100 mg/m^2/wk
Mean intrapatient coefficient of variation of oral bioavailability [2]: 34%
antifolate content in liver, aminopterin vs methotrexate [3]: no different
Interpatient coefficient of variation of oral bioavailability [4]: 59%
Interpatient oral bioavailability (%) [5]: 44%
Maximum (%) oral bioavailability [5]: 95%
Minimum (%) oral bioavailability [5]: 6%
oral bioavailability [6]: ≤ 44%
